Measured values published in patent US20240173422A1, “BICYCLIC PEPTIDE LIGAND DRUG CONJUGATES” (BICYCLETX LIMITED, priority 2019, published 2024).
pKd: −log10 of the molar value. Numbered stars: 1 amine (or outer) side, 2 acyl side, 3 side chain; on linkers, the order of the positions; unused ones are H or OH. Bridge positions count the residues as written; N and C are the ends. Square brackets hold non-standard residues; d marks the D form. I, II: the chains in the order shown. * marks the point of attachment. X2 = O=C(CCOCCOCCOCCOCCOCCOCCOCCOCCOCCOCCC(=O)[*:2])[*:1]; TATA = O=C(CC[*:1])N1CN(C(=O)CC[*:2])CN(C(=O)CC[*:3])C1; Dolaproine = CO[C@@H]([C@@H]1CCCN1)[C@@H](C)C(=O)O; Dil = CC[C@H](C)[C@H](NC)[C@@H](CC(=O)O)OC; 1Nal = N[C@@H](Cc1cccc2ccccc12)C(=O)O; X3 = O=C(CCCC(=O)[*:2])NCCC(=O)[*:1]; PABC = O=C(OCc1ccc(N[*:1])cc1)[*:2]; X1 = C[C@@H](N*)[C@@H](O)c1ccccc1; Hyp = O=C(O)[C@@H]1C[C@@H](O)CN1; Cit = NC(=O)NCCC[C@H](N)C(=O)O; NMeV = CN[C@H](C(=O)O)C(C)C; Sar = CNCC(=O)O

Assays:
[1] = biological target: Human Nectin-4 (residues Gly32-Ser349; NCBI RefSeq: NP_112178.2) with C-terminal FLAG tag, biotinylated (human) (UniProt Q96NY8); assay: SPR binding assay, against BCY8126 as reference
[2] = biological target: Human Nectin-4 (residues Gly32-Ser349; NCBI RefSeq: NP_112178.2) with C-terminal FLAG tag, biotinylated (human) (UniProt Q96NY8); assay: SPR (Biacore 3000), biotinylated Nectin-4 captured on streptavidin CM5 chip, peptide as analyte
[3] = Body weight monitoring in the NCI-H292 xenograft study; format: in vivo, Balb/c nude mice (Mus Musculus); conditions: 3 mpk, iv, qw
Procedure: All the procedures related to animal handling, care and the treatment in the study were performed according to the guidelines approved by the Institutional Animal Care and Use Committee (IACUC) of WuXi AppTec, following the guidance of the Association for Assessment and Accreditation of Laboratory Animal Care (AAALAC). At the time of routine monitoring, the animals were checked for any effects of tumor growth and treatments on normal behavior such as mobility, food and water consumption (by looking only), body weight gain/loss, eye/hair matting and any other abnormal effect as stated in the protocol. Death and observed clinical signs were recorded on the basis of the numbers of animals within each subset.

[4] = system: NCI-H292 xenograft; assay: In vivo efficacy study in NCI-H292 xenograft in Balb/c nude mice; design: species or system Balb/c nude mice (Mus Musculus); conditions: 3 mpk, iv
Source text: In Vivo Efficacy Study of BCY8244 in Treatment of NCI-H292 Xenograft in Balb/c Nude Mice
The objective of the research is to evaluate the in vivo anti-tumor efficacy of BCY8244 in treatment of NCI-H292 xenograft in Balb/c nude mice.
• Species: Mus Musculus • Strain: Balb/c nude • Age: 6-8 weeks • Sex: female • Body weight: 18-22 g • Number of animals: 43 mice plus spare • Animal supplier: Shanghai Lingchang Biotechnology Experimental Animal Co. Ltd
The NCI-H292 tumor cells were maintained in vitro as a monolayer culture in RPMI-1640 medium supplemented with 10% heat inactivated fetal bovine serum at 37° C. in an atmosphere of 5% CO2 in air. The tumor cells were routinely subcultured twice weekly by trypsin-EDTA treatment. The cells growing in an exponential growth phase were harvested and counted for tumor inoculation.
Each mouse was inoculated subcutaneously at the right flank with NCI-H292 tumor cells (10×10^6) in 0.2 ml of PBS for tumor development. 43 animals were randomized when the average tumor volume reached 168 mm^3. The test article administration and the animal numbers in each group were shown in the experimental design table.
The major endpoint was to see if the tumor growth could be delayed or mice could be cured. Tumor volume was measured three times weekly in two dimensions using a caliper, and the volume was expressed in mm^3 using the formula: V=0.5 a×b^2 where a and b are the long and short diameters of the tumor, respectively. The tumor size was then used for calculations of T/C value. The T/C value (in percent) is an indication of antitumor effectiveness; T and C are the mean volumes of the treated and control groups, respectively, on a given day. TGI was calculated for each group using the formula: TGI (%)=[1−(Ti−T0)/(Vi−V0)]×100; Ti is the average tumor volume of a treatment group on a given day, T0 is the average tumor volume of the treatment group on the day of treatment start, Vi is the average tumor volume of the vehicle control group on the same day with Ti and V0 is the average tumor volume of the vehicle group on the day of treatment start.
Summary statistics, including mean and the standard error of the mean (SEM), were provided for the tumor volume of each group at each time point.
Statistical analysis of difference in tumor volume among the groups was conducted on the data obtained at the best therapeutic time point after the final dose.
A t-test was performed to compare tumor volume among groups, […]. All data were analyzed using GraphPad Prism 5.0. P<0.05 was considered to be statistically significant.
Tumor growth inhibition rate for test articles in the NCI-H292 xenograft model was calculated based on tumor volume measurements at day 14 after the start of treatment.

[5] = biological target: T1, human Nectin-4 (Homo sapiens, UniProt Q96NY8); assay: Nectin-4 Biacore SPR binding assay
T1 sequence (Q96NY8 32-349): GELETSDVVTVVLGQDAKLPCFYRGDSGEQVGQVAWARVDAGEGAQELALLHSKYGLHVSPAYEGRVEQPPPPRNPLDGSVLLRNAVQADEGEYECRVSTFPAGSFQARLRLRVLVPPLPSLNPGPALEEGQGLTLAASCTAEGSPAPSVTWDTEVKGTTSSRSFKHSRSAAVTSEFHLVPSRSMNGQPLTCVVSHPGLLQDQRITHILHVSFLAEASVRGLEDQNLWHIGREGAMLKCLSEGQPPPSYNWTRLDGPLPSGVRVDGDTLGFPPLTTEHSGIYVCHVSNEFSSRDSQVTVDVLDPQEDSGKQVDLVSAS

BCY8244 (Nectin-4 homo-tandem), BDC of formula (A) (peptide)
fold greater binding activity than BCY8126 [1]: 3.5 fold | koff [2]: 0.000319 s⁻¹

BCY8126 (Nectin-4 monomer) (peptide)
pKd [2]: 8.84 | koff [2]: 0.000969 s⁻¹ | kon [2]: 662000 M⁻¹ s⁻¹

I: [Sar][Sar][Sar][Sar][Sar][Sar][Sar][Sar][Sar][Sar]CP[1Nal][dD]CMKDWSTP[Hyp]WC-NH2 / II: [Sar][Sar][Sar][Sar][Sar][Sar][Sar][Sar][Sar][Sar]CP[1Nal][dD]CMKDWSTP[Hyp]WC-NH2 / III: V[Cit][PABC][NMeV]V[Dil][Dolaproine]-X1 / IV: V[Cit][PABC][NMeV]V[Dil][Dolaproine]-X1 (linker I:11-I:15-I:25, II:11-II:15-II:25 via TATA; linker I:17-II:17 via X2; linker I:N-III:N, II:N-IV:N via X3; C-terminus assumed) [BCY8244]
body weight [3]: maintained the bodyweight well | tumor inhibitory effect ([4]; NCI-H292 xenograft, qw, 3 mg/kg): excellent levels of tumor inhibitory effect and regressed the tumors potently | Tumor volume (mean ± SEM) ([4]; day 0 after the start of treatment, qw): 168 ± 20 mm^3 | Tumor volume (mean ± SEM) ([4]; day 2 after the start of treatment, qw): 187 ± 20 mm^3 | Tumor volume (mean ± SEM) ([4]; day 4 after the start of treatment, qw): 180 ± 48 mm^3 | Tumor volume (mean ± SEM) ([4]; day 7 after the start of treatment, qw): 155 ± 33 mm^3 | Tumor volume (mean ± SEM) ([4]; day 9 after the start of treatment, qw): 141 ± 29 mm^3 | Tumor volume (mean ± SEM) ([4]; day 11 after the start of treatment, qw): 96 ± 23 mm^3 | TGI ([4]; day 14, qw): 109.0% | Tumor volume (mean ± SEM) ([4]; day 14, qw (Table 5)): 108 ± 15 mm^3 | T/C ([4]; day 14, qw, treated/control mean tumor volume): 12.8% | Tumor volume (mean ± SEM) ([4]; day 14 after the start of treatment, qw (Table 4)): 108 ± 15 mm^3 | pKd [5]: 9.37 | binding in the SPR binding assay [5]: good levels of binding | kd ([5]; Biacore SPR, biotinylated human Nectin-4, 25° C.): 0.000319 s⁻¹ | fold greater binding activity in the SPR binding assay than monomeric BCY8126 ([5]; homo-tandem versus monomer): 3.5 fold | kon ([5]; read-out: ka): 750000 M⁻¹ s⁻¹
